The values below come from US8993515B2, “Peptidomimetics comprising N-amino cyclic urea residues and uses thereof” (Valorisation-Recherche, Limited Partnership, priority 2012, dated 2015).

The EC50 is the concentration that produces a half-maximal response. As usually defined, the Kd is the free concentration of one partner at which half of the binding sites on the other are occupied at equilibrium, for simple one-to-one binding.

For assay [1], the system named is MAP kinase JNK phosphorylation induced by POVPC in RAW 264.7 murine macrophage cells. Nature of the assay: JNK assay: POVPC-induced JNK phosphorylation in RAW 264.7 macrophages. It is filed as cell-based. The conditions noted are these: for EC50: 2 h pre-treatment 10^−9 to 10^−6 M, then 10 μg/mL POVPC 30 min, phospho-JNK/total-JNK ratio, read-out: JNK-kinase cellular assay EC50; for inhibitory activity on MAP kinase JNK phosphorylation relative to [azaTyr^4]GHRP-6, in words: POVPC-stimulated RAW 264.7 cells. The method, then: RAW264.7 murine macrophage cells (American Type Culture Collection, Manassas, Va.) pre-treated with N-amino-imidazolin-2-one peptide for 2 h at concentration varying from 10^−9 to 10^−6 M were stimulated with 10 μg/mL POVPC (Cayman chemical, Ann Arbor, Mich.) for 30 min at 37° C. Cells were lysed on ice and centrifuged at 12,000×g. Aliquots of the resulting supernatant (30 μg of protein) were analyzed on SDS-PAGE and electrotransferred on nitrocellulose membrane. The revelation was performed by incubating the membrane with primary antibody against phospho-JNK or total-JNK (Cell signalling, Pickering, Canada) (1:500) overnight and with secondary HRP-conjugated goat anti-rabbit IgG antibody (Jackson Immunoresearch Laboratories Inc., West Grove, Pa.) (1:10,000) for 1 h. Membrane was visualized by chemiluminescence and intensity of bands was measured with Image Quant software (Molecular Dynamics, Sunnyvale, Calif.). The ratio of phospho-JNK/total-JNK was used to determine the phosphorylation state of JNK modulated by the tested peptide.
RAW 264.7 murine macrophage cells were seeded at 2×10^6 cells/well in a 6-well plate and starved in serum-free media overnight at 37° C. Cells were first pre-treated with the N-amino-imidazolin-2one peptide mimic at concentrations ranging from 10^−9 to 10^−6 M for 2 h and then stimulated with 10 μg/mL POVPC (Cayman chemical, Ann Arbor, Mich.) for 30 min at 37° C. Medium was then removed and cell plates were immediately frozen at −80° C. Cells were then scrapped into 100 μl of RIPA (50 mM Tris-HCl pH 7.5, 150 mM NaCl, 1% Triton X™-100, 0.1% SDS, 25 mM NaF) containing 1 mM PMSF and 1 mM Na3VO4, and incubated on ice for 30 min. The soluble fractions were isolated by centrifugation at 12,000×g for 30 min. The supernatant was collected and proteins were assayed with BCA reagent. Aliquots ([…]) were analyzed on 10% SDS-PAGE and electrotransferred on nitrocellulose membrane. Membrane was blocked with 5% BSA in TBS-T and incubated overnight with primary antibody against phospho-JNK or total-JNK (1:500) (Cell signalling, Pickering, Canada) in 5% BSA TBS-T. The membranes were then washed 5 times with TBS-T and incubated with secondary HRP-conjugated goat anti-rabbit IgG antibody (1:10,000) in 5% BSA TBS-T for 1 h at room temperature. The reaction was visualized by chemiluminescence using SuperSignal™ West Dura (Thermo scientific, Rockford, Ill.) and signals analyzed with Chemilmager™ 5500 (Alpha Innotech, San Leandro, Calif.). The intensity of each band was measured by densitometry using Image Quant™ software (Molecular Dynamics, Sunnyvale, Calif.) and the phosphorylation state was determined from the intensity ratio of phospho-JNK/total-JNK. To determine IC50 of inhibition curves, intensity ratio data were plotted using Prism™ 4 software (GraphPad, La Jolla, Calif.).

In assay [2] the target is T1, recombinant soluble His-tagged CD36 (Homo sapiens, UniProt P16671).
T1 construct: recombinant soluble His-tagged CD36 functionalized surface
T1 sequence (P16671 30-439 limits assumed): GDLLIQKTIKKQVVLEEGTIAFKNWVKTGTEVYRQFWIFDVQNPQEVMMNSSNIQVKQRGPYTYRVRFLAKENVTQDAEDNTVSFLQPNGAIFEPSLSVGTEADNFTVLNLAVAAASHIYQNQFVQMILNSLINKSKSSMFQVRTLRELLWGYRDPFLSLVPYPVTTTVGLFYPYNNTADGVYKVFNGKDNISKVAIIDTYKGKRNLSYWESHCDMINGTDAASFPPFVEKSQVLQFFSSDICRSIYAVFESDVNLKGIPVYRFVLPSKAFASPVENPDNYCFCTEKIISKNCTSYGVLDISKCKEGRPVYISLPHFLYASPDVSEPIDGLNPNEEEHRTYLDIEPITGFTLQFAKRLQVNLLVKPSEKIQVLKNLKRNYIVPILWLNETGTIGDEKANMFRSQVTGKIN
Nature of the assay: SPR spectroscopy binding to CD36. The conditions noted are these: for Kd: SPR response for ligand 100 nM to 30 μM fitted to Langmuir isotherm; for SPR ΔλSPR (nm): SPR response on CD36 functionalized surface. The procedure:
The affinity of the small peptide ligand binding to a recombinant soluble His-tagged CD36 functionalized surface was screened by SPR sensing as previously described (Bolduc, O. R.; Lambert-Lanteigne, P.; Colin, D. Y.; Zhao, S. S.; Proulx, C.; Boeglin, D.; Lubell, W. D.; Pelletier, J. N.; Féthière, J.; Ong, H.; Masson, J.-F. Analyst. 2011, 136, 3142-3148). Briefly, the SPR sensors were prepared by immobilizing the His-tagged CD36 to 3-mercaptopropionyl-leucinyl-histidinyl-aspartyl-leucinyl-histidinyl-aspartic acid (3-Mpa-LHDLHD) with Nα,Nα-bis(carboxymethyl)-L-lysine at the C-terminus, a modified peptide monolayer competent to bind His-tagged biomolecules. A calibration curve of the SPR response for ligand concentrations ranging from 100 nM to 30 μM was fitted to the Langmuir isotherm (Equation 1) to determine K (K=1/Kd) for the CD36-ligand system. ΔλSPR=(K[ligand])ΔλSPRmax(1+K[ligand])^−1 (1)
A general note: Surface plasmon resonance follows binding to a sensor surface in real time, without labels.

For a further assay, the system named is human TF-1 cells. Nature of the assay: IL-1β-induced thymocyte (TF-1) proliferation, CyQUANT NF dye. It is filed as cell-based. Conditions: peptide 1 μM; human IL-1β 25 ng/mL; 48 h. The procedure: Immune cell proliferation was assessed by DNA intercalation of CyQUANT NF® fluorescent dye (Invitrogen, Carlsbad, Calif., USA). Essentially, human TF-1 cells (CRL-2003, American Type Culture Collection) were cultured in complete RPMI 1640 (WISENT Inc., Montréal, Quebec, Canada) supplemented with human GM-CSF (2 ng/ml, PeptroTech, Rocky Hill, N.J., USA). Cells (passage 5 and at least 85% viable, as verified by trypan blue dying) were reincorporated into RPMI 1640 medium deprived of phenol red (Gibco Invitrogen®, Carlsbad, Calif., USA) and of growth factors [i.e. fetal bovine serum (FBS) and GM-CSF] for 18 h and split (5×10^3 cells in 200 μL/well) into 96-well non-adherent flat bottom culture plates (Sarstedt®, Nümbrecht, Germany). Following 15 min pre-incubation with peptide or peptidomimetic (1 μM), the cells were treated with human IL-1β (25 ng/mL, PeproTech®, Rocky Hill, N.J., USA) and re-incubated. After 48 h, the cells were centrifuged for 7 min at 300 g, reincorporated into Hank's Buffered Salt Solution (1×HBSS, 50 μL/well, Gibco Invitrogen®, Carlsbad, Calif., USA) and transferred into a 96-well polystyrene black plate (Corning Incorporated, Corning, N.Y., USA). An additional 50 μL solution made of CyQUANT NF® dye (component A, 1×) and CyQUANT NF™ delivery agent (component B, 1×) in 1×HBSS was added to the cells in each well, which were covered with aluminum foil and incubated for 45 min. Fluorescence intensity was measured using a microplate reader (Perkin Elmer Wallac Envision® 2104; Perkin Elmer®, California, USA) with excitation at 485 nm and emission detection at 530 nm (FITC 485 and FITC 531 filters, respectively). Hexaplicate experiments were repeated three times and results were analyzed by one-way analysis of variance (ANOVA) factoring for treatments, and data are presented as mean±standard error of the mean (SEM).

In assay [3] the test system is NO production induced by TLR-2 agonist R-FSL-1 in J774 cells. Nature of the assay: Nitrite (NO) production induced by TLR-2 agonist R-FSL-1 in J774 cells. Conditions: 10^−6 M, 2 hr pre-exposure; R-FSL-1 300 ng/mL 17 hr. It is filed as cell-based. The method, then: J774 cells (ATCC passage 10 to 15) were cultured (2×10^5 cells/ml) in 24-well plates (Costar 3524 NY) in DMEM supplemented with FBS (10%).Three hours after plating, cell culture medium was replaced with 0.5 mL of the same medium containing 10^−6M of imidazolones derivatives for 2 hr pretreatment. Cells were then exposed to R-FSL1 (300 ng/ml) for 17 hr at 37° C. Cell culture media were collected and aliquots (10 μL) were mixed with 10 μL of 2,3 diaminonapthalene reagent (0.05 mg/mL in HCl 0.62M) for nitrite levels determination by fluorescence (λexc 365 nm and λem 430 nm) (Misko et al. (1993) Anal Biochem, 214, 11-16).

Residues, ends and D or L forms follow the SMILES beside them.

On to `Cc1cn(NC(=O)[C@H](C)NC(=O)[C@@H](Cc2c[nH]c3ccccc23)NC(=O)[C@@H](N)Cc2c[nH]cn2)c(=O)n1C(Cc1ccccc1)C(=O)N[C@@H](CCCCN)C(N)=O` (stereo partly drawn) [31a, His-D-Trp-Ala-(N-amino-4-methyl-imidazolin-2-one)-D-Phe-Lys-NH2], for which, in assay [1], the EC50 was found to be 0.0554 µM and the “inhibitory activity on MAP kinase JNK phosphorylation relative to [azaTyr^4]GHRP-6, in words” value is reported as “increased inhibitory activity”. Besides, in assay [2], the Kd turned out to be 4.9 µM and the “SPR ΔλSPR (nm)” value is recorded as 1.1 nm.
In the case of `CC(C)C[C@@H](NC(=O)[C@@H](CCC(=O)O)NC(=O)[C@@H](C(C)C)N1CCCN(NC(=O)[C@@H](Cc2ccc(O)cc2)NC(=O)[C@H](N)CCCNC(=N)N)C1=O)C(=O)N[C@H](C)C(N)=O` [[Nap^3]-101.10, D-Arg-D-Tyr-Nap-D-Val-D-Glu-D-Leu-D-Ala-NH2] (HELM PEPTIDE1{[dR].[dY].[CC(C)[C@H](C(=O)[*:2])N1CCCN(N[*:1])C1=O].[dE].[dL].[dA].[am]}$$$$V2.0), in the assay on human TF-1 cells, the “diminished IL-1β-induced proliferation” value came out at 41%.
For the compound `Cc1c(-c2ccccc2)n(NC(=O)[C@H](C)NC(=O)[C@@H](Cc2c[nH]c3ccccc23)NC(=O)[C@@H](N)Cc2cnc[nH]2)c(=O)n1C(Cc1ccccc1)C(=O)N[C@@H](CCCCN)C(N)=O` (mixture of isomers) [DNDB3-01, His-D-Trp-Ala-(N-amino-4-methyl-5-phenyl-imidazolin-2-one)-DL-Phe-Lys-NH2], in assay [3], the “effect on nitrite/NO production induced by R-FSL-1, in words” value (shortened to “effect on nitrite/NO production induced”) is listed as “comparable to that of EP80317”.
As for “His-D-Trp-Ala-(N-amino-4-methyl-imidazolin-2-one)-D-Phe-Lys-NH2 [YGR 401-2]”, in assay [3], the “effect on nitrite/NO production induced” value was “comparable to that of EP80317”.
On the same count and under the same terms, then `Cc1c(-c2ccccc2)n(NC(=O)[C@H](C)NC(=O)[C@@H](Cc2c[nH]c3ccccc23)NC(=O)[C@@H](N)Cc2cnc[nH]2)c(=O)n1[C@@H](Cc1ccccc1)C(=O)N[C@@H](CCCCN)C(N)=O` [DND B2-109, His-D-Trp-Ala-(N-amino-4-methyl-5-phenyl-imidazol-2-one)-L-Phe-Lys-NH2], with “comparable to that of EP80317”.
Turning to `C[C@H](NC(=O)[C@@H](Cc1c[nH]c2ccccc12)NC(=O)[C@@H](N)Cc1cnc[nH]1)C(=O)NN(Cc1ccc(O)cc1)C(=O)N[C@H](Cc1ccccc1)C(=O)N[C@@H](CCCCN)C(N)=O` [[azaTyr^4]GHRP-6, His-D-Trp-Ala-AzaTyr-D-Phe-Lys-NH2, reference compound] (HELM PEPTIDE1{H.[dW].A.[O=C(N(Cc1ccc(O)cc1)N[*:1])[*:2]].[dF].K.[am]}$$$$V2.0), in assay [2], the Kd stood at 5 µM.
Take `CC(C)C[C@@H](NC(=O)[C@@H](CCC(=O)O)NC(=O)[C@@H](C(C)C)N1CC=CCN(NC(=O)[C@@H](Cc2ccc(O)cc2)NC(=O)[C@H](N)CCCNC(=N)N)C1=O)C(=O)N[C@H](C)C(N)=O` [[Nad^3]-101.10, D-Arg-D-Tyr-Nad-D-Val-D-Glu-D-Leu-D-Ala-NH2] (HELM PEPTIDE1{[dR].[dY].[CC(C)[C@H](C(=O)[*:2])N1CC=CCN(N[*:1])C1=O].[dE].[dL].[dA].[am]}$$$$V2.0): the “exacerbated proliferation over the level of exogenous IL-1β” value in the assay on human TF-1 cells was determined as 53%.
For the compound “HAlC-2MeDTrp-DLys-Trp-DPhe-Lys-NH2 [EP80317, reference compound]”, the “effect on nitrite/NO production induced” value in assay [3] is reported as “negatively modulated nitrite production”.
Regarding `Cc1ccc(-c2c(C)n(C(Cc3ccccc3)C(=O)N[C@@H](CCCCN)C(N)=O)c(=O)n2NC(=O)[C@H](C)NC(=O)[C@@H](Cc2c[nH]c3ccccc23)NC(=O)[C@@H](N)Cc2cnc[nH]2)cc1` (mixture of isomers) [DNDB3-03, His-D-Trp-Ala-(N-amino-4-methyl-5-p-toluoyl-imidazol-2-one)-DL-Phe-Lys-NH2], the “effect on nitrite/NO production induced” value in assay [3] is listed as “comparable to that of EP80317”.
Turning to `C[C@H](NC(=O)[C@@H](Cc1c[nH]c2ccccc12)NC(=O)[C@@H](N)Cc1c[nH]cn1)C(=O)Nn1cc(Cc2ccccc2)n([C@H](Cc2ccccc2)C(=O)N[C@@H](CCCCN)C(N)=O)c1=O` [31b, His-D-Trp-Ala-(N-amino-4-benzyl-imidazolin-2-one)-D-Phe-Lys-NH2], in assay [1], the EC50 was greater than 10 µM and the “inhibitory activity on MAP kinase JNK phosphorylation relative to [azaTyr^4]GHRP-6, in words” value is “relatively lower inhibitory activity”. The “affinity for the CD36 receptor relative to [azaTyr^4]GHRP-6, in words” value in assay [2] (SPR) was “comparable affinity”. Further, the “SPR ΔλSPR (nm)” value in assay [2] was determined as 1.6 nm.
For “His-D-Trp-Ala-(N-amino-4-methyl-imidazolin-2-one)-L-Phe-Lys-NH2 [YGR401-1]”, in assay [3], the “effect on nitrite/NO production induced” value is “comparable to that of EP80317”.
Take `C[C@H](NC(=O)[C@@H](Cc1c[nH]c2ccccc12)NC(=O)[C@@H](N)Cc1c[nH]cn1)C(=O)NN(Cc1ccc(O)cc1)C(=O)N[C@H](Cc1ccccc1)C(=O)N[C@@H](CCCCN)C(N)=O` [[azaTyr^4]GHRP-6, His-D-Trp-Ala-AzaTyr-D-Phe-Lys-NH2, reference compound] (HELM PEPTIDE1{H.[dW].A.[O=C(N(Cc1ccc(O)cc1)N[*:1])[*:2]].[dF].K.[am]}$$$$V2.0): the EC50 in assay [1] came to 0.214 µM. Further, in assay [2], the “SPR ΔλSPR (nm)” value was 1.8 nm.
In the case of “His-azaPheAla-Trp-DPhe-Ala-NH2 [CP-1A(i), reference compound]”, the “effect on nitrite/NO production induced” value in assay [3] is “did not modulate NO production”.
